Measured values reported in patent US8269000B2, “Substituted pyrimidine and triazine compounds” (Gruenenthal GmbH, priority 2008, dated 2012).

Molecular target: T1, rat B1R (Rattus norvegicus, UniProt P97583)
T1 construct: expressed in transfected cells; host or cells: CHO K1 cells
T1 sequence (P97583 1-337): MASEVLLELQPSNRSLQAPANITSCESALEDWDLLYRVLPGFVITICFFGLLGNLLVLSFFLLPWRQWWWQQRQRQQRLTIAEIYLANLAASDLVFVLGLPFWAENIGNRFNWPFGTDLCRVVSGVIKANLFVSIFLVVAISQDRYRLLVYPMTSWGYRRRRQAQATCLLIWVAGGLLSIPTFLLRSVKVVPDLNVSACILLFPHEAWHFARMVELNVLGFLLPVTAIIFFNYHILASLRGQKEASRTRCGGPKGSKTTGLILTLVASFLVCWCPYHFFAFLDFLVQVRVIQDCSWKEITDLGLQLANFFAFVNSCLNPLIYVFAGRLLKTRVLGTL
Assay: FLIPR Ca2+ functional study on bradykinin receptor 1 (rB1R CHO K1 cells)
Type: cell-based
Conditions: % inhibition rat B1R at 10 μM
Method: The agonistic or antagonistic activity of substances can be quantified on the bradykinin receptor 1 (B1R) of the species human and rat using ectopically expressing cell lines (CHO K1 cells) and with the aid of a Ca^2+-sensitive dye (Fluo-4) using a fluorescent imaging plate reader (FLIPR). The indication in % activation is based on the Ca^2+ signal after addition of Lys-Des-Arg^9-bradykinin (0.5 nM) or Des-Arg^9-bradykinin (100 nM). Antagonists lead to suppression of the Ca^2+ influx after the addition of the agonist. % Inhibition compared with the maximum achievable inhibition is indicated.
The agonistic or antagonistic activity of substances can be determined on the bradykinin receptor 1 (B1R) of the species human and rat using the following assay. According to this assay, the Ca^2+ influx through the channel is quantified with the aid of a Ca^2+-sensitive dye (Fluo-4 type, Molecular Probes Europe BV, Leiden, Netherlands) using a Fluorescent Imaging Plate Reader (FLIPR, Molecular Devices, Sunnyvale, USA).
Chinese hamster ovary cells (CHO K1 cells) which have been stably transfected with the human B1R gene (hB1R cells) or with the B1R gene of the rat (rB1R cells) are used. For functional studies, the cells are plated out on black 96-well plates having a clear base (BD Biosciences, Heidelberg, Germany or Greiner, Frickenhausen, Germany) in a density of 20,000-35,000 cells/well. The cells are left overnight at 37° C. and with 5% CO2 in culture medium (hB1R cells: Nutrient Mixture Ham's F12, Gibco Invitrogen GmbH, Karlsruhe, Germany or DMEM, Sigma-Aldrich, Taufkirchen, Germany; rB1R cells: D-MEM/F12, Gibco Invitrogen GmbH, Karlsruhe, Germany), with 10 vol.% FBS (fetal bovine serum, Gibco Invitrogen GmbH, Karlsruhe, Germany or PAN Biotech GmbH, Aidenbach, Germany). On the following day, the cells are loaded for 60 minutes at 37° C. with 2.13 μM Fluo-4 (Molecular Probes Europe BV, Leiden, Netherlands) in HBSS buffer (Hank's buffered saline solution, Gibco Invitrogen GmbH, Karlsruhe, Germany) […] (Sigma-Aldrich, Taufkirchen, Germany) and 10 mM HEPES (Sigma-Aldrich, Taufkirchen, Germany). The plates are then washed twice with HBSS buffer, and HBSS buffer additionally containing 0.1% BSA (bovine serum albumin; Sigma-Aldrich, Taufkirchen, Germany), 5.6 mM glucose and 0.05% gelatin (Merck KGaA, Darmstadt, Germany) is added to the plates. After incubation for a further 20 minutes at room temperature, the plates are inserted into the FLIPR for Ca^2+ measurement. Alternatively, washing is carried out with buffer A (15 mM HEPES, 80 mM NaCl, 5 mM KCl, 1.2 mM CaCl2, 0.7 mM MgSO4, 2 g/l glucose, 2.5 mM probenecid) followed by loading with buffer A with added 2.5 μM Fluo-4 and 0.025% Pluronic F127 (Sigma-Aldrich, Taufkirchen, Germany). The cells are then washed twice with buffer A and incubated for 30 minutes at room temperature with buffer A additionally containing 0.05% BSA and 0.05% gelatin and are then inserted into the FLIPR for Ca^2+ measurement. The Ca^2+-dependent fluorescence is measured before and after the addition of substances (λex=488 nm, λem=540 nm). Quantification is carried out by measuring the highest fluorescence intensity (FC, fluorescence counts) over time.
The FLIPR protocol consists of two substance additions. Test substances (10 μM) are first pipetted onto the cells and the Ca^2+ influx is compared with the control (hB1R: Lys-Des-Arg^9-bradykinin>=50 nM; rB1R: Des-Arg^9-bradykinin 10 μM). This gives the activation in %, based on the Ca^2+ signal after addition of Lys-Des-Arg^9-bradykinin (>=50 nM) or Des-Arg^9-bradykinin (10 μM). After 10-20 minutes' incubation, Lys-Des-Arg^9-bradykinin (hB1R) or Des-Arg^9-bradykinin (rB1R) is applied in the concentration of the EC80, and the influx of Ca^2+ is likewise determined. Antagonists lead to suppression of the Ca^2+ influx. The % inhibition compared with the maximum achievable inhibition is calculated. […]

| % inh. (rat B1R) 10 μM | Compound |
| --- | --- |
| 80% | COc1cc(C)c(S(=O)(=O)N2CCC[C@@H]2COc2nccc(N3CCC(CNC(=O)c4ccncc4)(N4CCN(C)CC4)CC3)n2)c(C)c1 [G_CC-054, N-[[1-[2-[[(2R)-1-(4-methoxy-2,6-dimethylphenyl)sulfonyl-2-pyrrolidinyl)methoxy]-4-pyrimidinyl]-4-(4-methyl-1-piperazinyl)-4-pipendinyl]methyl]-4-pyridinecarboxamide] |
| 95% | COc1cc(C)c(S(=O)(=O)N2CCCCC2COc2nccc(N3CCC(c4cccs4)(N(C)C)CC3)n2)c(C)c1 (stereo not drawn) [G_CC-070, [1-[2-[[1-[(4-methoxy-2,6-dimethyl-phenyl)sulfonyl]-piperidin-2-yl]-methoxy]-pyrimidin-4-yl]-4-thiophen-2-yl-pipendin-4-yl]-dimethyl-amine] |

| Compound | % inh. (rat B1R) 10 μM |
| --- | --- |
| COc1cc(C)c(S(=O)(=O)N(C)C(COc2nccc(N3CCN(C4CCN(C)CC4)CC3)n2)c2ccccc2)c(C)c1 (stereo not drawn) [G_CC-059, 4-methoxy-N,2,6-trimethyl-N-[2-[[4-[4-(1-methyl-4-pipendinyl)-1-piperazinyl]-2-pyrimidinyl]oxy]-1-phenylethyl]benzenesulfonamide] | 98% |

Same assay, conditions: CHO-K1, % inhibition rat B1R at 10 μM, read-out: % inh. (rat B1R) 10 μM

| inhibition at 10 µM | Compound |
| --- | --- |
| 73% | COc1cc(C)c(S(=O)(=O)N2CCC[C@H]2COc2nccc(N3CCC4(CC3)C(=O)N(C)CC4c3ccc(F)cc3)n2)c(C)c1 (stereo partly drawn) [G_CC-050, 1-(4-fluorophenyl)-8-[2-[[(2S)-1-(4-methoxy-2,6-dimethylphenyl)sulfonyl-2-pyrrolidinyl]methoxy]-4-pyrimidinyl]-3-methyl-3,8-diazaspiro[4.5]decan-4-one] |
| 96% | COc1cc(C)c(S(=O)(=O)N2CCC[C@H]2COc2nccc(N3CCC4(CCN(Cc5ccccc5)C4=O)CC3)n2)c(C)c1 [G_CC-053, 3-benzyl-8-[2-[[(2S)-1-(4-methoxy-2,6-dimethylphenyl)sulfonyl-2-pyrrolidinyl)methoxy]-4-pyrimidinyl]-3,8-diazaspiro[4.5]decan-4-one] |
| 98% | COc1cc(C)c(S(=O)(=O)N2CCCCC2COc2nccc(N3CC4CC3CN4Cc3ccncc3)n2)c(C)c1 (stereo not drawn) [G_CC-056, 5-[2-[[1-(4-methoxy-2,6-dimethylphenyl)sulfonyl-2-piperidinyl]methoxy]-4-pyrimidinyl]-2-(4-pyridylmethyl)-2,5-diazabicyclo[2.2.1]heptane] |
| 90% | COc1cc(C)c(S(=O)(=O)N2CCCC(Oc3nccc(N4CC5CC4CN5Cc4ccncc4)n3)C2)c(C)c1 (stereo not drawn) [G_CC-057, 5-[2-[[1-(4-methoxy-2,6-dimethylphenyl)sulfonyl-3-piperidinyl]oxy]-4-pyrimidinyl]-2-(4-pyridylmethyl)-2,5-diazabicyclo[2.2.1]heptane] |
| 93% | COc1cc(C)c(S(=O)(=O)N2CCC[C@H]2COc2nccc(N3CC4CC3CN4Cc3ccncc3)n2)c(C)c1 (stereo partly drawn) [G_CC-058, 5-[2-[[(2S)-1-(4-methoxy-2,6-dimethylphenyl)sulfonyl-2-pyrrolidinyl)methoxy]-4-pyrimidinyl]-2-(4-pyridylmethyl)-2,5-diazabicyclo[2.2.1]heptane] |
| 81% | COc1cc(C)c(S(=O)(=O)N(C)C(COc2nccc(N3CCC4(CCN(Cc5ccccc5)C4=O)CC3)n2)c2ccccc2)c(C)c1 (stereo not drawn) [G_CC-061, N-[2-[[4-(3-benzyl-4-oxo-3,8-diazaspiro[4.5]decan-8-yl)-2-pyrimidinyl]oxy]-1-phenylethyl]-4-methoxy-N,2,6-trimethylbenzenesulfonamide] |
| 78% | COc1cc(C)c(S(=O)(=O)N(C)C(COc2nccc(N3CCC(OCCN4CCCC4)(c4cccnc4)CC3)n2)c2ccccc2)c(C)c1 (stereo not drawn) [G_CC-062, 4-methoxy-N,2,6-trimethyl-N-[1-phenyl-2-[[4-[4-(3-pyridyl)-4-(2-1-pyrrolidinylethoxy)-1-piperidinyl]-2-pyrimidinyl]oxy]ethyl]benzenesulfonamide] |
| 55% | COc1cc(C)c(S(=O)(=O)N(C)C(COc2nccc(N3CCN(C(=O)c4cccnc4)CC3)n2)c2ccccc2)c(C)c1 (stereo not drawn) [G_CC-064, 4-methoxy-N,2,6-trimethyl-N-[2-[[4-[4-[oxo-(3-pyridyl)methyl]-1-piperazinyl]-2-pyrimidinyl]oxy]-1-phenylethyl]benzenesulfonamide] |
| 58% | COc1cc(C)c(S(=O)(=O)N(C)C(COc2nccc(N3CC4CC3CN4Cc3ccc(F)cc3)n2)c2ccccc2)c(C)c1 (stereo not drawn) [G_CC-065, N-[2-[[4-[2-[(4-fluorophenyl)methyl]-2,5-diazabicyclo[2.2.1]heptan-5-yl]-2-pyrimidinyl]oxy]-1-phenylethyl]-4-methoxy-N,2,6-trimethylbenzenesulfonamide] |
| 104% | COc1cc(C)c(S(=O)(=O)N2CCCCC2COc2nccc(N3CCC(O)(c4cccnc4)CC3)n2)c(C)c1 (stereo not drawn) [G_CC-067, 1-[2-[[1-(4-methoxy-2,6-dimethylphenyl)sulfonyl-2-piperidinyl]methoxy]-4-pyrimidinyl]-4-(3-pyridyl)-4-piperidinol] |
| 68% | COc1cc(C)c(S(=O)(=O)N(C)C(COc2nccc(N3CCC4(CCN(Cc5ccccc5)C4)C3)n2)c2ccccc2)c(C)c1 (stereo not drawn) [G_CC-068, N-[2-[[4-(3-benzyl-3,7-diazaspiro[4.4]nonan-7-yl)-2-pyrimidinyl]oxy]-1-phenylethyl]-4-methoxy-N,2,6-trimethylbenzenesulfonamide] |
| 102% | CCCCC1(N(C)C)CCN(c2ccnc(OCC3CCCCN3S(=O)(=O)c3c(C)cc(OC)cc3C)n2)CC1 (stereo not drawn) [G_CC-069, [4-butyl-1-[2-[[1-[(4-methoxy-2,6-dimethyl-phenyl)sulfonyl]-piperidin-2-yl]-methoxy]-pyrimidin-4-yl]-piperidin-4-yl]-dimethyl-amine] |
| 101% | COc1cc(C)c(S(=O)(=O)N2CCCCC2COc2nccc(N(C)CCN3CCC(c4ccccc4)(N4CCCC4)CC3)n2)c(C)c1 (stereo not drawn) [G_CC-073, [2-[[1-[(4-methoxy-2,6-dimethyl-phenyl)sulfonyl]-piperidin-2-yl]-methoxy]-pyrimidin-4-yl]-methyl-[2-(4-phenyl-4-pyrrolidin-1-yl-piperidin-1-yl)-ethyl]-amine] |
| 102% | CCCCC1(N(C)C)CCN(CCN(C)c2ccnc(OCC3CCCCN3S(=O)(=O)c3c(C)cc(OC)cc3C)n2)CC1 (stereo not drawn) [G_CC-074, 2-(4-butyl-4-dimethylamino-piperidin-1-yl)-ethyl-[2-[[1-[(4-methoxy-2,6-dimethyl-phenyl)sulfonyl]-piperidin-2-yl]-methoxy]-pyrimidin-4-yl]-methyl-amine] |
| 104% | COc1cc(C)c(S(=O)(=O)N2CCC[C@H]2COc2nccc(N(C)CCCN3CCC(c4ccccc4)(N(C)C)CC3)n2)c(C)c1 [G_CC-075, 3-(4-dimethylamino-4-phenyl-piperidin-1-yl)-propyl-[2-[[(2S)-1-[(4-methoxy-2,6-dimethyl-phenyl)sulfonyl]-pyrrolidin-2-yl]-methoxy]-pyrimidin-4-yl]-methyl-amine] |
